Where “and” joins values, the source holds several entries; their conditions need not be identical. Identical values can stand only once.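 Compound exposure: 48 hours, 5 concentrations, 96-well plates. GI50: concentration for 50% inhibition of growth. The concentration for full growth arrest is given as TGI.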
Assays:
Experiment in all cases: NCI-60 cell line screen, 48 h
HCC-2998 colon = test system: HCC-2998 colon
HCT-116 colon = test system: HCT-116 colon
HOP-62 NSCLC = test system: HOP-62 NSCLC
KM12 colon = test system: KM12 colon
MOLT-4 leukemia = test system: MOLT-4 leukemia
NCI-H460 lung = test system: NCI-H460 lung
OVCAR-5 ovarian = test system: OVCAR-5 ovarian
SF-539 CNS = test system: SF-539 CNS
SR leukemia = test system: SR leukemia
SW-620 colon = test system: SW-620 colon

Compound	TGI (HCC-2998 colon) [µM]	TGI (HCT-116 colon)	TGI (HOP-62 NSCLC)	TGI (KM12 colon) [µM]	TGI (MOLT-4 leukemia)	TGI (NCI-H460 lung) [µM]	TGI (OVCAR-5 ovarian)	TGI (SF-539 CNS)	TGI (SR leukemia)	TGI (SW-620 colon) [µM]	GI50 (HCC-2998 colon) [µM]	GI50 (HCT-116 colon)	GI50 (HOP-62 NSCLC)	GI50 (MOLT-4 leukemia)	GI50 (NCI-H460 lung) [µM]	GI50 (OVCAR-5 ovarian) [µM]	GI50 (SR leukemia)	GI50 (SW-620 colon) [µM]
NC1=NCC(CN2CCCC2)O1 (centres undefined)	> 100	> 100 µM	> 100 µM	> 100	> 100 µM	> 100	> 100 µM	> 100 µM	> 100 µM	> 100								
O=C1C=CC(=O)c2c(O)c(N3CCN(CCOCCO)CC3)c(Cl)c(O)c21		801 nM [middle of 4 runs]	3.84 µM and 3.6 µM and 6.67 µM		0.837 µM and 0.175 µM		3.32 µM [middle of 4 runs]	3.31 µM [middle of 4 runs]	0.43 µM and 0.614 µM and 0.321 µM		2.27	333 nM [middle of 4 runs]	2.07 µM and 0.983 µM and 2.64 µM	0.097 µM and 0.0331 µM	1.57	1.26	0.104 µM and 0.0382 µM and 0.0771 µM	
Cc1ccccc1OC(C)C(=O)NN1C(=O)CC(=O)N(c2ccccc2)C1=S (centres undefined)	> 100	> 100 µM	> 100 µM	> 100	> 100 µM	> 100	> 100 µM	> 100 µM		> 100								
CO[C@H]1C[C@H](O[C@H]2CC[C@]3(C=O)[C@H]4CC[C@]5(C)[C@@H](C6=CC(=O)OC6)CC[C@]5(O)[C@@H]4CC[C@]3(O)C2)O[C@H](C)[C@H]1O	8.36	0.737 µM	0.135 µM	1.93	2.89 µM	0.176	1.35 µM	0.218 µM		2.71								
COC(=O)C1=C(O)C(C(=O)OC)[C@]2(O)[C@H](C(=O)OC)[C@H]1C[C@@H](c1ccc([N+](=O)[O-])cc1)[C@H]2C(=O)OC (some centres undefined)		32.3 µM	> 100 µM	> 100	81.6 µM	> 100	65.9 µM	> 100 µM		58.4								
Cc1csc(NC(=NCCN2CCOCC2)Nc2nc(C)cs2)n1	> 100	> 100 µM	> 100 µM	> 100	> 100 µM	> 100	> 100 µM	> 100 µM		> 100								
NCCC1CN(C(=O)OCc2ccccc2)c2ccccc21 (centres undefined)	33.9	15.6 µM	> 54.4 µM	48.2	52.1 µM	43.4	45.4 µM	14.4 µM	10.1 µM	25.4								
O=C(NNCc1ccc(Cl)cc1)Nc1cccc2ccccc12	> 100	> 100 µM	> 100 µM	> 100	> 100 µM	> 100	> 100 µM	> 100 µM	> 100 µM	> 100								
COC(=O)c1c(-c2ccc(Cl)cc2)cc2c3ccccc3n(C)c2c1C(=O)OC		> 100 µM	> 100 µM	> 100	> 100 µM	> 100	> 100 µM	> 100 µM		> 100								
COc1ccccc1CNCCCCCCCCCCCCN1C(=O)c2ccc3c4c(ccc(c24)C1=O)C(=O)N(CCCCCCCCCCCCNCc1ccccc1OC)C3=O	> 50		> 50 µM		> 50 µM		> 50 µM			> 50	> 50		3.64 µM	> 50 µM		> 50		> 50
Cn1c2ccccc2n2c3ncccc3c(=S)c(C#N)c12	> 100	> 100 µM	> 100 µM	> 100	> 100 µM	> 100	> 100 µM		> 100 µM	> 100								
O=C1c2ccccc2C(=O)N1c1nc(-c2ccc(Cl)cc2)cc(N2N=C(c3ccc(Br)cc3)CC2c2ccccc2)n1 (centres undefined)	0.966	> 20.5 µM	> 23 µM	> 63.9	> 23.7 µM	> 41.9		4.41 µM	2.42 µM									
CCOC(=O)c1cnccc1CC1(C#N)c2ccccc2C=CN1C(=O)c1ccccc1 (centres undefined)	> 100	> 100 µM	> 100 µM	31.3	50.8 µM	89.5	> 100 µM	75.6 µM	92.7 µM	> 100								
CCN(CC)c1nc(N(C)C)c2ccccc2n1	38.3	> 100 µM	> 100 µM	> 100	30.3 µM	> 100	> 100 µM	96.1 µM	27.5 µM	> 100								
O=C1CC(n2cccc2)c2c(Br)sc(Br)c21 (centres undefined)	28.7	28.7 µM	53.4 µM	22.8	33.6 µM	36.6	32.5 µM	35 µM	12 µM	41.3								
Cc1cc2cc3c(cc2c(-c2ccc(N)cc2)n1)OCO3		> 100 µM	> 100 µM	> 100	39.6 µM	> 100	> 100 µM	> 100 µM	52.5 µM	> 100								
NS(=O)(=O)c1ccc(NNc2c3ccccc3nc3c(C(=O)Nc4ccc(S(=O)(=O)Nc5ncccn5)cc4)cccc23)cc1	> 25	> 25 µM	> 25 µM	> 25	> 25 µM	> 25	> 25 µM	> 25 µM	> 25 µM	> 25								
Cc1nc2ccc(Cl)cc2c2c1CCN2c1ccccc1	24.8	17.6 µM	83.8 µM	39.1	28.5 µM	23.9		28.8 µM	36.3 µM	63.9								
CCCNc1ncnc2[nH]ncc12	> 100	> 100 µM	> 100 µM	> 100	> 100 µM	> 100	> 100 µM	> 100 µM	> 100 µM	> 100								
O=c1cc(NCc2ccncc2)[nH]c(=O)[nH]1	> 100	> 100 µM	> 100 µM	> 100	> 100 µM	> 100	> 100 µM	> 100 µM	> 100 µM	> 100								
C=C(C)[C@@H]1CC[C@]2(C(=O)O)CC[C@]3(C)[C@H](CCC4[C@@]5(C)CC[C@H](C(=O)/C=C/c6ccc(O)c(O)c6)C(C)(C)[C@@H]5CC[C@]43C)[C@@H]12 (some centres undefined)	7	> 100 µM	17 µM	28.2	> 100 µM	16.2	26.7 µM		> 100 µM									
